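These data come from cells grown in 96-well plates and exposed to compound for 48 hours at five concentrations. At the GI50, growth is halved. TGI: concentration producing complete growth inhibition.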
How the values were obtained:
Experiment in all cases: NCI anticancer screen, dose series, 48 h
[1] = system: SF-295 CNS
[2] = system: SNB-75 CNS
[3] = system: NCI-H522 lung
[4] = system: HCC-2998 colon
[5] = system: UACC-257 melanoma
[6] = system: A549 NSCLC
[7] = system: NCI-H226 lung
[8] = system: SF-268 CNS
[9] = system: HL-60(TB) leukemia
[10] = system: OVCAR-5 ovarian

Q: How did the TGI [1] turn out when `CN(C)C(c1ccccc1)C(O)c1ccccc1` (stereo unspecified) was run?
A: Its TGI is greater than 100 µM.

Q: And the TGI [2]?
A: Its TGI is greater than 100 µM.

Q: And the TGI [3]?
A: Its TGI is greater than 100 µM.

Q: What about the TGI [4] of the same compound?
A: Its TGI is greater than 100 µM.

Q: And the TGI [5]?
A: The TGI was greater than 100 µM.

Q: What about the TGI [6] of the same compound?
A: Its TGI is greater than 100 µM.

Q: And the TGI [7]?
A: Its TGI is greater than 100 µM.

Q: And the TGI [8]?
A: Its TGI is greater than 100 µM.

Q: What about the TGI [9] of the same compound?
A: Its TGI is greater than 100 µM.

Q: Which results are given for `COc1ccc(-n2cc(-c3cc(OC)c(OC)c(OC)c3)[nH]c2=O)cc1Cl`?
A: GI50 [1]: 48.9 µM; TGI [1]: > 100 µM; GI50 [2]: 6.69 µM; TGI [2]: 28.8 µM; GI50 [3]: > 100 µM; TGI [3]: > 100 µM; GI50 [4]: > 100 µM; TGI [4]: > 100 µM; GI50 [10]: > 100 µM; TGI [10]: > 100 µM; GI50 [6]: > 100 µM; TGI [6]: > 100 µM; GI50 [7]: > 100 µM; TGI [7]: > 100 µM; GI50 [8]: 40.8 µM; TGI [8]: > 100 µM; GI50 [9]: > 100 µM; TGI [9]: > 100 µM

Q: How did the TGI [1] turn out when `COC1=CC2(C=CC1=O)c1cc(OC)c(OC)cc1CCN2C(=O)c1ccccc1` (stereo unspecified) was run?
A: Its TGI is greater than 100 µM.

Q: And the TGI [2]?
A: The TGI was greater than 100 µM.

Q: And the TGI [3]?
A: The TGI was greater than 100 µM.

Q: What about the TGI [4] of the same compound?
A: The TGI was greater than 100 µM.

Q: And the TGI [5]?
A: Its TGI is greater than 100 µM.

Q: And the TGI [6]?
A: Its TGI is greater than 100 µM.

Q: What about the TGI [7] of the same compound?
A: Its TGI is greater than 100 µM.

Q: What does the source list for `Cc1ccc(-c2cc(=O)c3cc(C)c(C)c(C(=O)O)c3o2)cc1C`?
A: TGI [1]: > 100 µM; TGI [2]: > 100 µM; TGI [3]: > 100 µM; TGI [4]: > 100 µM; TGI [5]: > 100 µM; TGI [10]: > 100 µM; TGI [6]: > 100 µM; TGI [7]: > 100 µM; TGI [9]: > 100 µM

Q: What does the source list for `Fc1ccc(C2SCc3nc4ccccc4n32)cc1Cl` (stereo unspecified)?
A: TGI [1]: 98.1 µM; TGI [3]: 35.2 µM; TGI [4]: 37.2 µM; TGI [5]: 56.7 µM; TGI [10]: 66.6 µM; TGI [6]: > 100 µM; TGI [7]: 52 µM; TGI [8]: > 100 µM; TGI [9]: 47.6 µM

Q: How did the TGI [1] turn out when `CC(C)c1ccc(C(c2ccc(OCC(=O)O)cc2)c2ccc(C(C)C)cc(=O)c2O)c(O)c(=O)c1` was run?
A: Its TGI is 55.1 µM.

Q: And the TGI [2]?
A: The TGI was 16.2 µM.

Q: And the TGI [4]?
A: The TGI was 20.3 µM.

Q: And the TGI [5]?
A: The TGI was 41.6 µM.

Q: What about the TGI [6] of the same compound?
A: The TGI was 21.3 µM.

Q: And the TGI [9]?
A: Its TGI is 15 µM.

Q: How did the TGI [1] turn out when `CCc1ccc(Nc2ccc([N+](=O)[O-])cc2[N+](=O)[O-])cc1` was run?
A: Its TGI is greater than 100 µM.

Q: What about the TGI [2] of the same compound?
A: Its TGI is greater than 100 µM.

Q: And the TGI [4]?
A: The TGI was greater than 100 µM.

Q: And the TGI [5]?
A: Its TGI is greater than 100 µM.

Q: And the TGI [10]?
A: The TGI was greater than 100 µM.

Q: What about the TGI [6] of the same compound?
A: The TGI was greater than 100 µM.

Q: And the TGI [7]?
A: The TGI was 99.8 µM.

Q: What about the TGI [9] of the same compound?
A: The TGI was greater than 100 µM.

Q: What does the source list for `O=C(/C(=C/c1cccc([N+](=O)[O-])c1)c1ccccc1)c1ccccc1`?
A: GI50 [1]: 4.08 µM; TGI [1]: 20.2 µM; GI50 [2]: 2.3 µM; TGI [2]: 7.65 µM; GI50 [3]: 1.91 µM; TGI [3]: 3.77 µM; GI50 [4]: 2.54 µM; TGI [4]: 6.27 µM; GI50 [5]: 4.17 µM; TGI [5]: 18.8 µM; GI50 [10]: 5.56 µM; TGI [10]: 25.8 µM; GI50 [6]: 4.31 µM; TGI [6]: 30.1 µM; GI50 [7]: 3.08 µM; TGI [7]: 11.5 µM; GI50 [8]: 3.9 µM; TGI [8]: 15.5 µM

Q: `COc1ccc(-c2nnc(COc3ccc(NC(=O)Nc4ccc(Cl)c(C(F)(F)F)c4)cc3F)o2)cc1` was tested. Which GI50 [1] did it give?
A: Its GI50 is 2.48 µM.

Q: And the TGI [1]?
A: Its TGI is 9.06 µM.

Q: What about the GI50 [2] of the same compound?
A: The GI50 was 1.48 µM.

Q: And the TGI [2]?
A: Its TGI is 8.36 µM.

Q: And the GI50 [4]?
A: The GI50 was 4.86 µM.

Q: And the TGI [4]?
A: Its TGI is 53.1 µM.

Q: What about the GI50 [5] of the same compound?
A: Its GI50 is 2.41 µM.

Q: And the TGI [5]?
A: Its TGI is 11.2 µM.

Q: And the GI50 [10]?
A: Its GI50 is 10.9 µM.

Q: What about the TGI [10] of the same compound?
A: The TGI was 71.4 µM.

Q: And the GI50 [6]?
A: The GI50 was 3.25 µM.

Q: What about the TGI [6] of the same compound?
A: Its TGI is 18.7 µM.

Q: And the GI50 [7]?
A: Its GI50 is 4.93 µM.

Q: What about the TGI [7] of the same compound?
A: The TGI was 37.3 µM.

Q: What about the GI50 [8] of the same compound?
A: The GI50 was 6.01 µM.

Q: And the TGI [8]?
A: The TGI was 36.1 µM.

Q: And the GI50 [9]?
A: The GI50 was 2.41 µM.

Q: What about the TGI [9] of the same compound?
A: Its TGI is 6.12 µM.

Q: Which TGI [1] does the source give for `CCCCCCC(=O)C/C(=N/NC(N)=S)C(=O)NC1C2CC3CC(C2)CC1C3` (stereo unspecified) here?
A: Its TGI is greater than 100 µM.

Q: What about the TGI [2] of the same compound?
A: The TGI was greater than 100 µM.

Q: What about the TGI [4] of the same compound?
A: Its TGI is greater than 100 µM.

Q: What about the TGI [5] of the same compound?
A: The TGI was greater than 100 µM.

Q: What about the TGI [10] of the same compound?
A: Its TGI is greater than 100 µM.

Q: And the TGI [6]?
A: The TGI was greater than 100 µM.

Q: What about the TGI [7] of the same compound?
A: Its TGI is greater than 100 µM.

Q: And the TGI [8]?
A: Its TGI is greater than 100 µM.

Q: And the TGI [9]?
A: Its TGI is greater than 100 µM.

— PubChem BioAssay (NCI)
